# Laboratory results reported in paper PMC4896643 (Science signaling, 2016).
# “Also recorded” adds a separate entry of the source.
# Assays:
# [1] = test system: ovariectomized C57BL/6 mice; experiment: metabolic effects in ovariectomized mice
# ERα-SRC3 interaction = experiment: tr-FRET assay of SRC3 binding to ERα; format: biochemical
# MCF-7 cells [2] = experiment: Western blot of signaling pathway activation in MCF-7 cells
# MCF-7 cells [3] = experiment: ChIP-Seq of ERα, ERK2, pSer5 RNA Pol II
# [4] = test system: ovariectomized female mice; experiment: reproductive tissue and thymus effects in ovariectomized mice
# ovariectomized mice = experiment: carotid artery reendothelialization after perivascular electric injury
# ERα-knockout mice = experiment: effects in ERα-knockout; conditions: ERKO mice
# [5] = test system: ovariectomized C57BL/6 mice; experiment: gene regulation and signaling pathway activation in tissues in vivo
# MCF-7 cells [6] = experiment: MCF-7 cell proliferation; conditions: 6 days, WST assay
# MCF-7 cells [7] = experiment: RNA-Seq transcriptional profiling; conditions: for number of genes regulated: 10 nM E2 or 1 μM PaPE-1, P<0.05, fold change >2
# [8] = test system: primary bovine aortic endothelial cells (BAECs); experiment: eNOS activation; format: cell-based; conditions: for eNOS / NOS activity: 15 min
compound,measurement,setting,value
"C[C@]12CC[C@@H]3c4ccc(O)cc4CC[C@H]3[C@@H]1CC[C@@H]2O [E2, estradiol]",food consumption,[1]; 3 weeks,early drop in food intake
same,liver FASN and SREBP-1c gene expression,[1]; 3 weeks,reduced
same,body weight gain after ovariectomy,"[1]; 3 weeks, pellets",suppressed; also recorded: reduced body weight gain
same,weight of fat depots,"[1]; 3 weeks, perigonadal, perirenal, subcutaneous, mesenteric",decreased the weight of all of the fat depots examined
same,fat mass (EchoMRI),[1]; end of 3 weeks,greatly reduced fat mass; also recorded: reduced fat mass more markedly
same,lean mass and water mass (EchoMRI),[1]; end of 3 weeks,increased only by E2; also recorded: did increase lean mass and water mass
same,triglyceride concentrations in blood,[1]; end of 3 weeks,decreased triglyceride concentrations in blood
same,hepatocyte lipid content (Oil Red O),"[1]; liver, 3 weeks",decreased hepatocyte lipid content
same,SRC3 binding to ERα-ligand complex,ERα-SRC3 interaction; coactivator titration,bound with high affinity
same,phosphorylation of Ser118 in ERα,MCF-7 cells [2],observed
same,ERK2 recruitment,MCF-7 cells [3],caused recruitment of ERK2 to enhancer regions together with ERα
same,ERα recruitment to chromatin,MCF-7 cells [3],recruited to chromatin
same,mammary gland adiposity,[4],reduced the mammary gland adiposity
same,mammary gland ductal morphology,[4],elicited marked ductal growth
same,thymus size,[4],induced marked involution of the thymus
same,uterine weight,[4],effective in increasing growth of the uterus
same,uterine stimulation with ICI,ovariectomized mice; plus antiestrogen ICI,blocked uterine stimulation
same,"endothelial repair response with ICI 182,780","ovariectomized mice; plus antiestrogen ICI 182,780",fully prevented
same,uterine weight,ovariectomized mice; same animals as reendothelialization,greatly elevated by E2
same,blood triglycerides,ERα-knockout mice,did not decrease blood triglycerides
same,suppression of liver FASN and SREBP1c gene expression,ERα-knockout mice,lost in ERKO mice
same,uterine growth,ERα-knockout mice,did not stimulate uterine growth
same,ability to diminish body weight gain after ovariectomy,ERα-knockout mice; 3 weeks,lost
same,mTOR signaling (S6 phosphorylation) in liver and skeletal muscle,"[5]; injected, 2h",effective in inducing mTOR signaling
same,signaling pathway stimulation in reproductive tissues (uterus and mammary gland),"[5]; injected, 2h",stimulated reproductive tissues
same,gene expression changes in uterus,"[5]; pellets, qPCR",induced gene expression changes in uterus
same,proliferation of MCF-7 cells,MCF-7 cells [6],potently stimulated proliferation
same,regulated genes blocked by MAPK inhibitor AZD6244,"MCF-7 cells [7]; 1 μM AZD6244 pretreatment, 4 h",~ 23%
same,regulated genes blocked by mTOR pathway inhibitor PP242,"MCF-7 cells [7]; 1 μM PP242 pretreatment, 4 h",40%
same,number of genes regulated,MCF-7 cells [7]; 4h,~1500 genes
same,number of genes regulated,MCF-7 cells [7]; 24h,about 3000 genes
same,eNOS / NOS activity,[8],activated by E2
same,eNOS / NOS stimulation with ICI,"[8]; plus antiestrogen ICI 182,780",fully attenuated by ICI
"CC/C(=C(\c1ccc(O)cc1)c1ccc(OCCN(C)C)cc1)c1ccccc1 [OH-Tam, trans-hydroxytamoxifen]",reversal of the ER-SRC3 interaction promoted by E2,ERα-SRC3 interaction,reversed the ER-SRC3 interaction
CC(=O)NCCNC(=O)CCC(C)(c1ccc(O)cc1)c1ccc(O)cc1 [PaPE-4],eNOS / NOS activity,[8],increased NOS activity
